From patent publication US12577227B2, “WDR5 inhibitors and modulators” (Vanderbilt University, priority 2019, dated 2026) come the findings set out here.

A value given as a limit tells only on which side of the number the result lay.

This assay deals with MV4:11 human cancer cell lines. Kind of assay: Cellular viability / anti-proliferative activity (CellTiter-Glo). Type of assay: cell-based. The following applies: MV4-11, 120 h, MV-4-11 cells, 5 day protocol, mean of minimum two replicates, read-out: GI50 on cellular proliferation of MV4:11 human cancer cell lines. As for the experimental part: Cellular Viability of Human Tumor Cell Lines
Anti-Proliferative Activity Using MLL-Harboring Cell Lines.
MV-4-11 and K562 cells are grown in IMDM media supplemented with 10% FBS and […], Molm-13 cells are cultured in RPMI-1640 media supplemented with 10% FBS and 1% o penicillin/streptomycin. Viability assays are performed by dispensing 200 cells at 7200 cells/mL into each well of an opaque 384-well plate and adding compounds at the indicated concentrations in a final volume of 32 μL and a final concentration of DMSO of 0.3% for all samples. A certain range of compound concentrations is made through a series of 2-fold dilutions starting 30 μM at the highest, total 22 dilutions. After a set incubation period, 5 day protocol, the viability of cells in each well is assessed using the CellTiter-Glo assay (Promega), read on a 96 Microplane Luminometer (Cytation 3, BioTek). Serial dilutions of each cell type are performed in all assays to generate standard curves and the final densities of cells are determined within the dynamic range of the instrument. GI50 values are calculated based on XLfit software (IDBS, Guildford, UK) with Sigmoidal Dose-Response Model. Each compound is tested in minimum of two replicates. Data are expressed as mean.
In general terms: Cellular ATP, detected with luciferase, serves as a proxy for viable cell number.

`CCn1cc(-c2cc(Cn3ccnc3)cc3c2NC(=O)CN([C@H](c2cc(OC)ccn2)C2CC2)C3=O)c(C(F)(F)F)n1` [Example 65, (S)-7-((1H-imidazol-1-yl)methyl)-4-(cyclopropyl(4-methoxypyridin-2-yl)methyl)-9-(1-ethyl-3-(trifluoromethyl)-1H-pyrazol-4-yl)-3,4-dihydro-1H-benzo[e][1,4]diazepine-2,5-dione]: the GI50 worked out at 290 nM. Then `Cc1cc(C)nc(CN2CCOc3c(cc(Cn4ccnc4C)cc3-c3cn(C)nc3C(F)(F)F)C2=O)c1` [Example 26, 4-((4,6-Dimethylpyridin-2-yl)methyl)-7-((2-methyl-1H-imidazol-1-yl)methyl)-9-(1-methyl-3-(trifluoromethyl)-1H-pyrazol-4-yl)-3,4-dihydrobenzo[f][1,4]oxazepin-5(2H)-one], with 135 nM. Then `COc1cc(Cn2cnc3c(-c4ccc(F)cc4C)cc(Cn4ccc5ccccc54)cc3c2=O)cc(OC)c1` [Example 4, 6-((1H-Indol-1-yl)methyl)-3-(3,5-dimethoxybenzyl)-8-(4-fluoro-2-methylphenyl)quinazolin-4(3H)-one], with above 940 nM; and `Cc1cc(C)nc(CN2CCOc3c(cc(Cn4ccn(C)c4=N)cc3-c3cn(C)nc3C(F)(F)F)C2=O)c1` [Example 22, 4-((4,6-Dimethylpyridin-2-yl)methyl)-7-((2-imino-3-methyl-2,3-dihydro-1H-imidazol-1-yl)methyl)-9-(1-methyl-3-(trifluoromethyl)-1H-pyrazol-4-yl)-3,4-dihydrobenzo[f][1,4]oxazepin-5(2H)-one], with 173 nM; and `Cc1ccnc(CN2CCOc3c(cc(Cn4ccnc4C)cc3-c3ccc(F)cc3C)C2=O)c1` [Example 25, 9-(4-Fluoro-2-methylphenyl)-7-((2-methyl-1H-imidazol-1-yl)methyl)-4-((4-methylpyridin-2-yl)methyl)-3,4-dihydrobenzo[f][1,4]oxazepin-5(2H)-one], with 300 nM. Then `COc1ccnc([C@H](C)N2CCOc3c(cc(Cn4ccnc4C)cc3-c3cc(C)ccc3C)C2=O)c1` [Example 56, (S)-9-(2,5-Dimethylphenyl)-4-(1-(4-methoxypyridin-2-yl)ethyl)-7-((2-methyl-1H-imidazol-1-yl)methyl)-3,4-dihydrobenzo[f][1,4]oxazepin-5(2H)-one], with 37 nM; and `CCn1cc(-c2cc(Cn3ccnc3)cc3c2OCCN([C@H]2CCOc4ccc(OC)cc42)C3=O)c(C(F)(F)F)n1` [Example 63, (S)-7-((1H-imidazol-1-yl)methyl)-9-(1-ethyl-3-(trifluoromethyl)-1H-pyrazol-4-yl)-4-(6-methoxychroman-4-yl)-3,4-dihydrobenzo[f][1,4]oxazepin-5(2H)-one], with 70 nM; and `COc1cc(CN2CC(C)Oc3c(cc(Cn4ccn(C)c4=N)cc3-c3ccc(F)cc3C)C2=O)cc(OC)c1` (stereo not shown) [Example 17, 4-(3,5-Dimethoxybenzyl)-9-(4-fluoro-2-methylphenyl)-7-((2-imino-3-methyl-2,3-dihydro-1H-imidazol-1-yl)methyl)-2-methyl-3,4-dihydrobenzo[f][1,4]oxazepin-5(2H)-one], with 22 nM. Take `Cc1cc(C)nc(CN2CCOc3c(cc(Cn4ccnc4C)cc3-c3cccnc3C)C2=O)c1` [Example 44, 4-((4,6-Dimethylpyridin-2-yl)methyl)-7-((2-methyl-1H-imidazol-1-yl)methyl)-9-(2-methylpyridin-3-yl)-3,4-dihydrobenzo[f][1,4]oxazepin-5(2H)-one]: the GI50 was 548 nM. As for `COc1cc(Cn2cnc3c(-c4ccc(F)cc4C)cc(Cn4ccn(C)c4=N)cc3c2=O)cc(OC)c1` [Example 1, 3-(3,5-Dimethoxybenzyl)-8-(4-fluoro-2-methylphenyl)-6-((2-imino-3-methyl-2,3-dihydro-1H-imidazol-1-yl)methyl)quinazolin-4(3H)-one], the GI50 is 150 nM. The result for `CCn1cc(-c2cc(Cn3ccnc3)cc3c2OCCN([C@H](c2cc(OC)ccn2)C2CC2)C3=O)c(C(F)(F)F)n1` [Example 59, (S)-7-((1H-Imidazol-1-yl)methyl)-4-(cyclopropyl(4-methoxypyridin-2-yl)methyl)-9-(1-ethyl-3-(trifluoromethyl)-1H-pyrazol-4-yl)-3,4-dihydrobenzo[f][1,4]oxazepin-5(2H)-one] reads 108 nM; that for `CCn1cc(-c2cc(Cn3ccnc3)cc3c(=O)n([C@H](c4cc(OC)ccn4)C4CC4)cnc23)c(C(F)(F)F)n1` [Example 62, (S)-6-((1H-imidazol-1-yl)methyl)-3-(cyclopropyl(4-methoxypyridin-2-yl)methyl)-8-(1-ethyl-3-(trifluoromethyl)-1H-pyrazol-4-yl)quinazolin-4(3H)-one], 1380 nM. Then `Cn1cc(-c2cc(Cn3ccn(C)c3=N)cc3c(=O)n(-c4ccccc4-c4ccccc4)cnc23)c(C(F)(F)F)n1` [Example 24, 3-([1,1′-Biphenyl]-2-yl)-6-((2-imino-3-methyl-2,3-dihydro-1H-imidazol-1-yl)methyl)-8-(1-methyl-3-(trifluoromethyl)-1H-pyrazol-4-yl)quinazolin-4(3H)-one], with 9010 nM; and `COc1cc(Cn2cnc3c(-c4ccc(F)cc4C)cc(Cc4c[nH]c5ccccc45)cc3c2=O)cc(OC)c1` [Example 2, 6-((1H-Indol-3-yl)methyl)-3-(3,5-dimethoxybenzyl)-8-(4-fluoro-2-methylphenyl)quinazolin-4(3H)-one], with above 940 nM.

With `Cc1cc(C)nc(CN2CCOc3c(cc(Cn4ccnc4C)cc3-c3cc(Cl)ccc3C)C2=O)c1` [Example 52, 9-(5-Chloro-2-methylphenyl)-4-((4,6-dimethylpyridin-2-yl)methyl)-7-((2-methyl-1H-imidazol-1-yl)methyl)-3,4-dihydrobenzo[f][1,4]oxazepin-5(2H)-one], the GI50 came to 63 nM. Then `CCn1cc(-c2cc(Cn3ccnc3C)cc3c2OCCN([C@H]2CCOc4ccc(OC)cc42)C3=O)c(C(F)(F)F)n1` [Example 64, (S)-9-(1-ethyl-3-(trifluoromethyl)-1H-pyrazol-4-yl)-4-(6-methoxychroman-4-yl)-7-((2-methyl-1H-imidazol-1-yl)methyl)-3,4-dihydrobenzo[f][1,4]oxazepin-5(2H)-one], with 39 nM; and `COc1cc(Cn2cnc3c(-c4cn(C)nc4C(F)(F)F)cc(Cn4ccn(C)c4=N)cc3c2=O)cc(OC)c1` [Example 20, 3-(3,5-Dimethoxybenzyl)-6-((2-imino-3-methyl-2,3-dihydro-1H-imidazol-1-yl)methyl)-8-(1-methyl-3-(trifluoromethyl)-1H-pyrazol-4-yl)quinazolin-4(3H)-one], with 630 nM. The result for `COc1ccc2nc(C)cc(N3CCOc4c(cc(Cn5ccnc5)cc4-c4cn(C)nc4C(F)(F)F)C3=O)c2c1` [Example 68, 7-((1H-imidazol-1-yl)methyl)-4-(6-methoxy-2-methylquinolin-4-yl)-9-(1-methyl-3-(trifluoromethyl)-1H-pyrazol-4-yl)-3,4-dihydrobenzo[f][1,4]oxazepin-5(2H)-one] reads 100 nM; that for `Cc1cc(C)nc(CN2CCOc3c(cc(Cn4ccnc4C)cc3-c3ccc(F)cc3Cl)C2=O)c1` [Example 48, 9-(2-Chloro-4-fluorophenyl)-4-((4,6-dimethylpyridin-2-yl)methyl)-7-((2-methyl-1H-imidazol-1-yl)methyl)-3,4-dihydrobenzo[f][1,4]oxazepin-5(2H)-one], 95 nM.
